Experimental data taken from US10596263B2, “Pazopanib formulation” (Novartis AG, priority 2011, dated 2020).

Legend:
[1] = Physical stability (form conversion) of reconstituted pazopanib suspension, monitored by XRPD; format: physicochemical
Protocol: Regarding the use of buffers, physical stability of the invented suspension was determined to be a function of pH, temperature, buffering system, and buffer strength as shown in Table I (some repeat runs are shown).
By removing the sodium citrate from the buffering system the rate of formation of the citrate salt under both refrigerated and long term storage conditions was impeded. Suspensions containing citric acid and sodium phosphate buffering system at pH 4.0 with buffer strength from 0.05 to 0.20 M and no PVP were all stable up to 43 days at refrigerated conditions. At long term storage conditions of 25° C./60% RH form conversion was detected at day 7 but the citrate salt was first observed on day 20.
Table 4 depicts a qualitatively similar formulation to the exemplary formulation, Example 1. Both formulations were manufactured using the same unit operations and processing parameters. […] At long term storage conditions of 25° C./60% RH or room temperature the physical stability of the comparative suspension monitored by XRPD indicated a mixture of forms were detected at day 7 compared with the exemplary formulation (Table 3) that was stability up to 34 days. It was determined that the use of citric acid and trisodium citrate buffer system speed the conversion to the pazopanib citrate salt. It is believed that this is driven by the smaller buffering capacity of citric acid and trisodium citrate buffer.

[2] = Solubility of pazopanib in water at various pH; format: physicochemical
Description: FIG. 2 is a graph showing the solubility of pazopanib in water at various pH.
Based on the pH-solubility curve of pazopanib (FIG. 2) the solubility profile between pH 3 and pH 6 is on a steep slope and therefore, small changes in pH will have a large change in solubility. At the lower pH levels the citrate and monohydrate salts predominate and at the higher pH the freebase predominates. When the suspension is buffered at pH 3.5 and below with citric acid and sodium phosphate buffering system, the drug substance in the suspension changes form to the hydrate and Citrate salts in less than 17 days after reconstitution under refrigerated storage condition 5° C. […] Therefore, the compositions of this invention are such that when reconstituted they preferably provide a suspension with a pH from 2.5 to 4.5, preferably a pH of from 3.0 to 4.2, and most preferably a pH of from 3.5 to 4.0.

[3] = In-vivo exposure of the drug after micronization; conditions: micronized active substance
Description: The pazopanib active substance is preferably micronized. […] Particle size reduction also helps to improve the mouth-feel of the suspension. Micronization may be achieved using techniques known in the art. According to one embodiment, particle size reduction is achieved through the use of fluid energy jet mill wherein the powder gets suspended in a high velocity nitrogen gas stream in a milling chamber, and particle size is reduced due to the principle of impact and attrition due to the high velocity collisions between particles suspended within the nitrogen gas stream, causing them to break down into smaller particles. Centrifugal force causes the larger, heavy particles to separate from smaller, lighter particles. The small particles are dragged by the escaping fluid stream towards the center of the mill, where they are discharged into filter bags, and the material is then collected into drums. The large particles are thrown outward where they recirculate and re-collide, causing them to breakdown. According to one embodiment, the resulting particle size distribution of pazopanib hydrochloride particles is >90% between 0.61 and 10.0 microns. In another embodiment, at least 50% is from 1 to 10 microns, preferably from 1.1 to 3.9 microns. In another embodiment 90% is 20 microns or less, preferably 10 microns or less.

[4] = Citric Acid/Sodium Citrate 0.2M, initial pH 4.0, PVP 0% wt/wt, 5° C./Ambient
[5] = Citric Acid/Sodium Citrate 0.5M, initial pH 4.0, PVP 0% wt/wt, 25° C./60% RH
[6] = Citric Acid/Sodium Phosphate 0.1M, initial pH 4.0, PVP 0% wt/wt, 25° C./60% RH
[7] = Citric Acid/Sodium Phosphate 0.2M, initial pH 4.0, PVP 0% wt/wt, 25° C./60% RH
[8] = citric acid and sodium phosphate buffer, pH 4.0, 0.05 to 0.20 M, no PVP, 25° C./60% RH

Cc1ccc(Nc2nccc(N(C)c3ccc4c(C)n(C)nc4c3)n2)cc1S(N)(=O)=O [pazopanib, 5-[[4-[(2,3-dimethyl-2H-indazol-6-yl)methylamino]-2-pyrimidinyl]amino]-2-methylbenzenesulfonamide]
Physical Stability ([1]; Citric Acid/Sodium Citrate 0.05M, initial pH 4.0, PVP 0% wt/wt, 5° C./Ambient): 43 days
Physical Stability: conversion to citrate salt by day [1, 4]: by day 42
Physical Stability: mixture of forms by day [1, 4]: day 21;
Physical Stability: conversion to citrate salt by day ([1]; Citric Acid/Sodium Citrate 0.2M, initial pH 4.0, PVP 0% wt/wt, 25° C./60% RH): day 7
Physical Stability: conversion to citrate salt by day ([1]; Citric Acid/Sodium Citrate 0.5M, initial pH 4.0, PVP 0% wt/wt, 5° C./Ambient): day 14
Physical Stability: conversion to citrate salt by day [1, 5]: day 14
Physical Stability: mixture of forms at [1, 5]: initial;
Physical Stability ([1]; Citric Acid/Sodium Phosphate 0.05M, initial pH 4.0, PVP 0% wt/wt, 5° C./Ambient): 43 days
Physical Stability ([1]; Citric Acid/Sodium Phosphate 0.05M, initial pH 4.0, PVP 0% wt/wt, 25° C./60% RH): At least 7 Days;
Physical Stability ([1]; Citric Acid/Sodium Phosphate 0.1M, initial pH 4.0, PVP 0% wt/wt, 5° C./Ambient): 43 days
Physical Stability [1, 6]: At least 7 Days;
Physical Stability: mixture of forms by day [1, 6]: day 20
Physical Stability: conversion to citrate salt by day ([1]; Citric Acid/Sodium Phosphate 0.2M, initial pH 3.0, PVP 0% wt/wt, 5° C./Ambient): day 17
Physical Stability: conversion to citrate salt by day ([1]; Citric Acid/Sodium Phosphate 0.2M, initial pH 3.2, PVP 0% wt/wt, 5° C./Ambient): day 17
Physical Stability: conversion to citrate salt by day ([1]; Citric Acid/Sodium Phosphate 0.2M, initial pH 3.5, PVP 0% wt/wt, 5° C./Ambient): day 17
Physical Stability ([1]; Citric Acid/Sodium Phosphate 0.2M, initial pH 4.0, PVP 0% wt/wt, 5° C./Ambient): 43 days
Physical Stability [1, 7]: At least 7 Days;
Physical Stability: conversion to citrate salt by day [1, 7]: day 20
Physical Stability ([1]; PVP added, citric acid and sodium phosphate, pH 4.0, buffering strength 0.05 M): at least 20 days
pazopanib monohydrochloride salt maintained until ([1]; PVP levels between 3.8 to 7.4% w/w, inclusive, citric acid and sodium phosphate, pH 4.0, 0.05 M): 34 days
drug substance changes form to the hydrate and Citrate salts after reconstitution ([1]; buffered at pH 3.5 and below, citric acid and sodium phosphate, refrigerated 5° C.): less than 17 days
form conversion started on day ([1]; citric acid and sodium citrate buffer, pH 4.0, buffer strength 0.05 M to 0.5 M, 5° C.): ≥ 14 days
Conversion of pazopanib to the citrate salt observed at ([1]; citric acid and sodium citrate buffer, pH 4.0, buffer strength 0.05 M to 0.5 M, 25° C./60% RH): initial to day 7
citrate salt first observed on day [1, 8]: 20 days
form conversion detected at day [1, 8]: 7 days
stable (physical stability of suspension) ([1]; citric acid and sodium phosphate buffer, pH 4.0, 0.05 to 0.20 M, no PVP, refrigerated conditions): up to 43 days
pH-solubility profile ([2]; between pH 3 and pH 6, water (FIG. 2)): steep slope
solubility, effect of micronization ([2]; micronized active substance): enhance
in-vivo exposure, effect of micronization [3]: enhance
